Laboratory results published in patent publication US9521846B2, “Template-fixed peptidomimetics with antimicrobial activity” (priority 2006, dated 2016).
In brackets after ≈: the same amount, converted by molar mass. Non-standard residues stand in square brackets, D forms with d. Residues, ends and D or L forms follow the SMILES beside them. Cha = N[C@@H](CC1CCCCC1)C(=O)O; dDab = NCC[C@@H](N)C(=O)O; Orn = NCCC[C@H](N)C(=O)O; Dab = NCC[C@H](N)C(=O)O

What was measured:
[1] = tested on: P. aeruginosa ATCC 27853; type: cell-based, Pseudomonas aeruginosa; details: ATCC 27853
Procedure, shortened: (§1)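 Peptide activity was measured by a modified NCCLS broth microdilution method in Mueller-Hinton broth with 0.02% BSA. An inoculum adjusted against a 0.5 McFarland standard to about 10^6 CFU/ml was mixed 1:1 with two-fold serial peptide dilutions.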

[2] = tested on: human red blood cells (hRBC); experiment: Hemolysis; type: cell-based; details: 100
[3] = tested on: P. aeruginosa
[4] = tested on: Pseudomonas aeruginosa P1021913; type: cell-based; details: P1021913
Procedure, shortened: as §1

[5] = tested on: Pseudomonas aeruginosa IMP 1 Livermore 3140; type: cell-based; details: IMP 1 Livermore 3140
Procedure, shortened: as §1

[6] = tested on: Pseudomonas aeruginosa P1021903; type: cell-based; details: P1021903
Procedure, shortened: as §1

[7] = tested on: Pseudomonas aeruginosa P8191900; type: cell-based; details: P8191900
Procedure, shortened: as §1

[8] = tested on: HELA cells (Acc57); experiment: Cytotoxicity assay, MTT reduction (LC 50, GI 50); type: cell-based
Procedure, shortened: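 Read-out was MTT reduction (A595) after 48 h peptide exposure (12.5–50 μM, triplicates) of HeLa cells plated at 7.0×10^3/well and precultured 24 h. Growth % was normalised to a time-zero reading. Linear trend interpolation gave the concentration at −50% growth (LC50) and at 50% growth (GI50).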

Compound	MIC P. aeruginosa ATCC 27853 [1] [µg/mL]	Hemolysis at 100 μg/ml [2] [%]	Average MIC [3] [µg/mL]	MIC P. aeruginosa P1021913 [4] [µg/mL]	MIC P. aeruginosa IMP1 Livermore 3140 [5] [µg/mL]	MIC P. aeruginosa P1021903 [6] [µg/mL]	MIC P. aeruginosa P8191900 [7] [µg/mL]	Cytotoxicity GI50 Hela cells [8] [µM]
CC[C@H](C)[C@@H]1NC(=O)[C@H](Cc2ccc(O)cc2)NC(=O)[C@H](CC(=O)O)NC(=O)[C@@H]2CCCN2C(=O)[C@H]2CCCN2C(=O)[C@H](CCN)NC(=O)[C@H](C)NC(=O)[C@H](CCN)NC(=O)[C@H](CCN)NC(=O)[C@H](Cc2c[nH]c3ccccc23)NC(=O)[C@H](CCN)NC(=O)[C@@H](CCN)NC(=O)[C@H](CCCN)NC(=O)[C@H](CCN)NC1=O [Example 43] (cyclo(DYI[Dab][Orn][dDab][Dab]W[Dab][Dab]A[Dab][dP]P))	0.13 (≈ 0.0834 µM)	0.5	0.95	2.00 (≈ 1.28 µM)	2.00 (≈ 1.28 µM)	0.125 (≈ 0.0802 µM)	0.50 (≈ 0.321 µM)	50
CC[C@H](C)[C@@H]1NC(=O)[C@H](Cc2c[nH]c3ccccc23)NC(=O)[C@H]([C@@H](C)O)NC(=O)[C@@H]2CCCN2C(=O)[C@H]2CCCN2C(=O)[C@H](CCN)NC(=O)[C@H](C)NC(=O)[C@H](CCN)NC(=O)[C@H](CCN)NC(=O)[C@H](Cc2c[nH]c3ccccc23)NC(=O)[C@H](CCN)NC(=O)[C@@H](CCN)NC(=O)[C@H](CCCN)NC(=O)[C@H](CCN)NC1=O [Example 48] (cyclo(TWI[Dab][Orn][dDab][Dab]W[Dab][Dab]A[Dab][dP]P))	0.02 (≈ 0.0128 µM)	0.2	0.08	0.13 (≈ 0.083 µM)	0.19 (≈ 0.121 µM)	0.02 (≈ 0.0128 µM)	0.03 (≈ 0.0191 µM)	50
CC[C@H](C)[C@@H]1NC(=O)[C@H](Cc2c[nH]c3ccccc23)NC(=O)[C@H]([C@@H](C)O)NC(=O)[C@@H]2CCCN2C(=O)[C@H]2CCCN2C(=O)[C@H](CCN)NC(=O)[C@H](C)NC(=O)[C@H](CCN)NC(=O)[C@H](CCN)NC(=O)[C@H](Cc2ccc(O)cc2)NC(=O)[C@H](CCN)NC(=O)[C@H](CCN)NC(=O)[C@H](CCCCN)NC(=O)[C@H](CCN)NC1=O [Example 20] (cyclo(TWI[Dab]K[Dab][Dab]Y[Dab][Dab]A[Dab][dP]P))	0.21 (≈ 0.135 µM)	0.2	0.48	0.31 (≈ 0.199 µM)	1.25 (≈ 0.802 µM)	0.21 (≈ 0.135 µM)	0.40 (≈ 0.257 µM)	50
CC[C@H](C)[C@@H]1NC(=O)[C@H](Cc2c[nH]c3ccccc23)NC(=O)[C@H]([C@@H](C)O)NC(=O)[C@@H]2CCCN2C(=O)[C@H]2CCCN2C(=O)[C@H](CCN)NC(=O)[C@H](C(C)C)NC(=O)[C@H](CCN)NC(=O)[C@H](CCN)NC(=O)[C@H](Cc2c[nH]c3ccccc23)NC(=O)[C@H](CCN)NC(=O)[C@H](CCN)NC(=O)[C@H](CCCCN)NC(=O)[C@H](CCC(N)=O)NC1=O [Example 30] (cyclo(TWIQK[Dab][Dab]W[Dab][Dab]V[Dab][dP]P))	0.09 (≈ 0.055 µM)	0.5	0.60	0.50 (≈ 0.305 µM)	2.00 (≈ 1.22 µM)	0.30 (≈ 0.183 µM)	0.13 (≈ 0.0794 µM)	46
C[C@@H]1NC(=O)[C@H](CCN)NC(=O)[C@H](CCN)NC(=O)[C@H](Cc2c[nH]c3ccccc23)NC(=O)[C@H](CCN)NC(=O)[C@H](CCN)NC(=O)[C@H](CCCCN)NC(=O)[C@H](CCN)NC(=O)[C@H](CC2CCCCC2)NC(=O)[C@H](Cc2c[nH]c3ccccc23)NC(=O)[C@H]([C@@H](C)O)NC(=O)[C@@H]2CCCN2C(=O)[C@H]2CCCN2C(=O)[C@H](CCN)NC1=O [Example 34] (cyclo(TW[Cha][Dab]K[Dab][Dab]W[Dab][Dab]A[Dab][dP]P))	0.05 (≈ 0.0308 µM)	0	0.33	0.48 (≈ 0.296 µM)	0.60 (≈ 0.37 µM)	0.29 (≈ 0.179 µM)	0.24 (≈ 0.148 µM)	50
CC[C@H](C)[C@@H]1NC(=O)[C@H](Cc2c[nH]c3ccccc23)NC(=O)[C@H]([C@@H](C)O)NC(=O)[C@@H]2CCCN2C(=O)[C@H]2CCCN2C(=O)[C@H](CO)NC(=O)[C@H](C)NC(=O)[C@H](CCN)NC(=O)[C@H](CCN)NC(=O)[C@H](Cc2c[nH]c3ccccc23)NC(=O)[C@H](CCN)NC(=O)[C@@H](CCN)NC(=O)[C@H](CCCN)NC(=O)[C@H](CCN)NC1=O [Example 49] (cyclo(TWI[Dab][Orn][dDab][Dab]W[Dab][Dab]AS[dP]P))	0.03 (≈ 0.0193 µM)	0.1	0.17	0.25 (≈ 0.161 µM)	0.50 (≈ 0.322 µM)	0.03 (≈ 0.0193 µM)	0.06 (≈ 0.0386 µM)	50
